Data on five molecules can be found in paper PMC8746528, “Novel Substituted Purine Isosteres: Synthesis, Structure-Activity Relationships and Cytotoxic Activity Evaluation” (Molecules, 2021).

Data set [1] has as its system HCT116 colon cancer cell line. As to the kind of experiment: MTT cell viability assay, HCT116. The format is cell-based. Particulars: Homo sapiens, HCT-116, treatment 72 h and 96 h, mean ± SD of three experiments. The procedure: (§1) The human HCT116 colon cancer cell line and PC-3 prostate cancer cell line were obtained from the American Type Cell Culture (ATCC, Bethesda, Md). Both cell lines were grown in 75 cm^2 culture flasks at 37 °C in 5% CO2 using Roswell Park Memorial Institute 1640 medium (RPMI 1640, Gibco) and Dulbecco’s modified Eagle’s medium F/12 (DMEM/F-12, Gibco), respectively, containing 10% fetal bovine serum (FBS, Gibco). To test the inhibitory activities of compounds using a cell-based assay, MTT assay was performed for cell viability, as described previously. Briefly, HCT116 cells were plated at a density of 1500 per well, while PC-3 cells were plated at a density of 750 per well in a 96-well plate. After 24 h, cells were treated with the indicated compounds in a dose-dependent manner for 72 h and 96 h (all tested compounds provided clear solutions). MTT [3-(4,5-dimethylthiazol-2-yl)-2,5-diphenyltetrazolium bromide] (Sigma M-5655) was added at a final concentration of 0.5 mg/mL directly to each well for 4 h at 37 °C. The medium was aspirated, and the blue MTT formazan precipitate was dissolved in dimethyl sulfoxide (DMSO). Absorbance was determined in a Powerwave microplate spectrophotometer (Biotek Instruments, Inc.) at 540 nm. Viable cell numbers were determined by tetrazolium conversion to its formazan dye. The IC50 was calculated by Microsoft Excel equation and confirmed by GraphPad Prism (7.0). Each experiment was performed in triplicate and mean values ± SD are reported.
Background: Formazan colour is commonly taken as a measure of viable cells.

The subject of data set [2] is PC-3 prostate cancer cell line. Kind of data set: MTT cell viability assay, PC-3. The format is cell-based. Conditions: Homo sapiens, treatment 72 h and 96 h, mean ± SD of three experiments. The procedure: as §1
The test system of data set [3] is normal human fibroblasts (WI-38). Kind of data set: MTT cytotoxicity towards normal fibroblasts. The class given is cell-based. Particulars: for Selectivity Index HCT116: SI = IC50 non cancer cell (WI-38)/IC50 cancer cell (HCT116); for Selectivity Index PC-3: SI = IC50 non cancer cell (WI-38)/IC50 cancer cell (PC-3); for cytotoxicity to normal cells in words / IC50: WI-38; for IC50: MTT, normal human fibroblasts. The procedure:
as §1
Figure 1 Dose-response curves for the administration of 14b, 26b, 35b on HCT116, PC-3 and WI-38 cells, as assessed by the MTT assay. Results are expressed as a percentage of controls. Statistical analysis was performed in triplicate determination at p < 0.05.

Data set [4] has as its system PC-3 cells. Kind of data set: DNA staining (propidium iodide) and flow cytometric cell cycle analysis. The format is cell-based, human. Particulars: for Cell cycle phase distribution G0/G1 / Cell cycle phase distribution G2/M / Cell cycle phase distribution S: compound at its IC50. The protocol: (§2) For cell cycle analysis, cell culture supernatants and attached cells were collected, centrifuged, washed in PBS, fixed in 50% ethanol and stained with an RNase-containing propidium iodide solution (50 μg/mL) (all reagents from Sigma). For cell apoptosis assay, cells were harvested and stained with Annexin V binding buffer, Annexin V–FITC and 7-AAD (Annexin V-FITC Apoptosis Detection Kit, BD Systems). DNA content was analyzed on a BD Accuri C6 Flow Cytometer using the BD CSampler software (BD Biosciences, USA). Non-apoptotic events were used to calculate the percentage of cells distributed in each phase. A p value < 0.05 was considered to be statistically significant (Student’s t-test).
In general terms: Flow cytometry measures light scatter and fluorescence of single cells or particles in a stream.

The subject of data set [5] is PC-3 cells. As to the kind of experiment: Annexin V-7AAD apoptosis assay. Conditions: for apoptotic nuclei: PC-3, 72 h, compound at its IC50, AnnexinV-7AAD staining, vehicle 3.5%. The class given is cell-based, human. The procedure:
as §2

In data set [6] the test system is a variety of cancer cell lines. Also noted: method as in PMID 27720292. Particulars: cited from earlier work.
The mark [7] stands for this setting: positive control at 25 nM, PC-3.

Where only a bound is given, the exact number is not on record here.

As usually defined, the IC50 is the concentration at which inhibition is half-maximal. Read a low IC50 as higher potency. In general, melting point refers to the temperature, or range, at which the solid turns liquid.

Molecule `Fc1cccc(-c2c[nH]c3c(Nc4ccccc4)ncnc23)c1` [26b, 7-(3-Fluorophenyl)-Ν-phenyl-5H-pyrrolo[3,2-d]pyrimidin-4-amine] came in with a melting point of over 250 °C. This molecule also gave an IC50 in data set [1] of 2050 ± 50 nM. In data set [2], this molecule returned an IC50 of 1950 ± 50 nM. In data set [3], the “Selectivity Index HCT116” value came out at 8.3, the “Selectivity Index PC-3” value was determined as 8.7, the “cytotoxicity to normal cells in words” value is given as “non-cytotoxic to the normal cell line” and the IC50 turned out to be 17000 ± 1500 nM. For the same molecule, in the data set with PC-3 cells [4] (PC-3, 72 h), the “Cell cycle phase distribution G0/G1” value is 54.4 (±1.1) %, the “Cell cycle phase distribution G2/M” value is 24.9 (±1.6) % and the “Cell cycle phase distribution S” value was 20.7 (±02.7) %. In the data set on PC-3 cells [5], this molecule gave an apoptotic nuclei of 17.7%.
In turn, `Fc1cccc(-c2c[nH]c3c(Nc4ccccc4)nccc23)c1` [14b, 3-(3-Fluorophenyl)-Ν-phenyl-1H-pyrrolo[2,3-c]pyridin-7-amine] gave a melting point of 168 to 169 °C. Half-maximal inhibition in data set [1] (IC50) was put at 90 ± 10 nM. Also, the half-inhibitory concentration (IC50) in data set [2] was 55 ± 15 nM. For the same molecule, in data set [3], the “Selectivity Index HCT116” value was determined as 222, the “Selectivity Index PC-3” value was 363, the “cytotoxicity to normal cells in words” value is listed as “practically non-toxic against the normal cell line” and the IC50 was determined as 20000 ± 400 nM. In addition, in data set [3] (normal cell line WI-38 vs both cancer cell lines), the selectivity index result was “higher than 200”. Besides, in the data set with PC-3 cells [4] (PC-3, 72 h), the “cell-cycle perturbation in words” value is recorded as “statistically significant accumulation of PC-3 cells at G2/M phase”, the “Cell cycle phase distribution G0/G1” value is 48.7 (±0.6) %, the “Cell cycle phase distribution G2/M” value is reported as 30.8 (±0.8) % and the “Cell cycle phase distribution S” value is recorded as 20.5 (±1.4) %. The same molecule gave an apoptotic nuclei in the data set with PC-3 cells [5] of 26.5%.
For the molecule `Fc1cccc(-c2n[nH]c3c(Nc4ccccc4)ncnc23)c1` [35b, 3-(3-Fluorophenyl)-Ν-phenyl-1H-pyrazolo[4,3-d]pyrimidin-7-amine], the melting point is 237 to 238 °C. Besides, the IC50 in data set [1] was determined as 2300 ± 200 nM. The molecule further returned an IC50 in data set [2] of 550 ± 50 nM. In addition, in data set [3], the “Selectivity Index HCT116” value stood at 5.3, the “Selectivity Index PC-3” value came out at 22.2, the “cytotoxicity to normal cells in words” value is listed as “non-cytotoxic to the normal cell line” and the IC50 worked out at 12200 ± 1000 nM. For the same molecule, in the data set with PC-3 cells [4] (PC-3, 72 h), the “Cell cycle phase distribution G0/G1” value is 58.9 (±0.6) %, the “Cell cycle phase distribution G2/M” value is listed as 24.9 (±2.4) % and the “Cell cycle phase distribution S” value is 16.3 (±1.8) %. The apoptotic nuclei in the data set with PC-3 cells [5] amounted to 11.5%.
Consider `COc1cccc2c1C(=O)c1c(O)c3c(c(O)c1C2=O)C[C@@](O)(C(=O)CO)C[C@@H]3O[C@H]1C[C@H](N)[C@H](O)[C@H](C)O1` [Dox, Doxorubicin, reference compound], for which the IC50 in data set [1] was 95 ± 10 nM; in data set [2] it was 25 ± 4 nM. In the data set with PC-3 cells [4] (setting [7]), this molecule showed a G2/M phase blockade of 58%. This molecule showed an induction of apoptosis with PC-3 cells [5] (setting [7]) of 28%.
Turning to `COc1cc(Nc2nccc3c(-c4ccccc4)n[nH]c23)cc(OC)c1OC` [3-phenyl-7-(3,4,5-trimethoxyphenyl)aminopyrazolo[3,4-c]pyridine], the IC50 values result in data set [6] was “medium to high nM range”.
